In general, Ki refers to a dissociation constant, usually derived from enzyme kinetics or from competition with a known ligand.

Experimental findings from paper PMC8877291, “Design and Synthesis of Arylpiperazine Serotonergic/Dopaminergic Ligands with Neuroprotective Properties” (Molecules, 2022) are described below.

In one data set the target is T1, dopamine D5 receptor (Homo sapiens, UniProt P21918).
T1 construct: expressed in transfected cells
Briefly: Dopamine D5 receptor competition binding ([3H]-SCH23390). To be noted: HEK-293 membranes, [3H]-SCH23390 0.3 nM, mean (CI 95%), read-out: Affinity Ki D5. How it is done: (§1) The final compounds were tested for their affinity at serotonin 5-HT1A, 5-HT2A, and 5-HT7 receptors and at dopamine D1, D2, D3, and D5 receptors. As a first step, competition radioligand binding assays were carried out for all the compounds at the single concentration of 10 µM, on membrane preparations from stable cell lines heterologously expressing the human cloned 5-HT1A, 5-HT2A, or 5-HT7 receptors. […] For the affinity determination at dopamine receptor subtypes, membrane fractions of human dopamine D2s, D3, D1, and D5 receptor-expressing cells were used. They were co-incubated with [^3H]spiperone (for D2s and D3 receptor) or [^3H]SCH23390 (for D1 and D5 receptor) and appropriate concentrations of test compound for 120 min. Bound radioligand was separated from the free ligand using filtration. Radioactivity was measured by liquid scintillation counting.
(§2) The affinity for dopamine D1 and D5 receptors was evaluated in membrane fractions of HEK-293 cells stably expressing the human dopamine D1 or D5 receptor. HEK-293-D1 cells were cultured in DMEM/F12 (15 mM HEPES, 1.2 g/L NaHCO3) with 10% (v/v) FBS and 1% (v/v) L-glutamine. HEK-293-D5 cells were cultured in DMEM/F12 (with L-glutamine, 1.2 g/L NaHCO3) with 20% (v/v) FBS. Preparation of membrane fractions and radioligand competition assays were performed as previously described. Briefly, membrane fractions were co-incubated with [^3H]-SCH23390 (0.3 nM) and different concentrations of test compound for 120 min at room temperature. Fluphenazine (100 µM) was used to determine non-specific binding and as reference compound.
(§3) Data of at least three independent experiments in triplicate were analyzed using GraphPad Prism 8.1 (San Diego, CA, USA). Binding curves were fitted to a non-linear regression model (one-site competition). Ki values were calculated from IC50 values using the Cheng–Prusoff equation. The statistical calculations were performed on –log(Ki).

A further data set concerns the target dopamine D3 receptor (Homo sapiens, UniProt P35462). Briefly: Dopamine D3 receptor competition binding ([3H]spiperone).
The target in data set [1] is T2, serotonin 5-HT2A receptor (Homo sapiens, UniProt P28223).
T2 construct: expressed in transfected cells
Briefly: 5-HT2A receptor radioligand competition binding ([3H]-ketanserin). Conditions: human cloned receptor, CHO-K1 membranes, 1 nM [3H]-ketanserin; ± S.E.M., n = 3 in duplicate; read-out: Affinity Ki 5-HT2A. (In general: Displacement assays read how much labelled ligand stays bound in the presence of the test substance.)

The target in data set [2] is T3, serotonin 5-HT1A receptor (Homo sapiens, UniProt P08908).
T3 construct: expressed in transfected cells
T3 sequence (P08908 1-422): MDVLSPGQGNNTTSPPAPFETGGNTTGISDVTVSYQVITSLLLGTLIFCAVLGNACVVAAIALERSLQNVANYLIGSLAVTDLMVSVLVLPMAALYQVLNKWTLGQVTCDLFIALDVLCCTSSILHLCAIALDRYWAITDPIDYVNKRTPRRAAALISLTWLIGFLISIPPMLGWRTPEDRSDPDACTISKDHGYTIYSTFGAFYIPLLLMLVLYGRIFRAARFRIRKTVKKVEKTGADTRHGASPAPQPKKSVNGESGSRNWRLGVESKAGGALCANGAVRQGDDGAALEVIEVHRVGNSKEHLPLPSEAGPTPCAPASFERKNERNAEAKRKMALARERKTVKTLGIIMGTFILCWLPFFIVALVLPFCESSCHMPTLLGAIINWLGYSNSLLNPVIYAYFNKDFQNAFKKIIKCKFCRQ
Briefly: 5-HT1A receptor radioligand competition binding ([3H]-8-Hydroxy-DPAT). Conditions: human cloned receptor, HEK293 membranes, 1 nM [3H]-8-Hydroxy-DPAT; ± S.E.M., n = 3 in duplicate; read-out: Affinity Ki 5-HT1A. How it is done:
as §1, with “As” for “The final compounds were tested for their affinity at serotonin 5-HT1A, 5-HT2A, and 5-HT7 receptors and at dopamine D1, D2, D3, and D5 receptors. As”
The affinity of the compounds for serotonin 5-HT1A receptor was evaluated in membrane preparations from HEK293 cells stably expressing the human cloned receptor, following previously described procedures with minor modifications. Competition binding experiments were performed using 1 nM [^3H]-8-Hydroxy-DPAT (1 mCi/mL, PerkinElmer NET929250UC) as radioligand. Nonspecific binding was assessed in the presence of 10 µM serotonin. […] Assays were carried out in duplicate in 96-well assay plates, in assay buffer (50 mM Tris-HCl, 5 mM MgSO4, pH = 7.4). Assay mixtures were incubated at 37 °C for 120 min, followed by filtration through GF/C glass filter plates, and washed with ice-cold wash buffer (50 mM Tris-HCl, pH = 7.4).

A short description of data set [3]: Stability assay in rat liver microsomes. The format is in vitro ADME. To be noted: pH 7.4; rat liver microsomes, 30 min incubation, NADPH-regenerating system, 10 μM; read-out: Metabolic Stability (percentage of recovery of the parent compound). How it is done: To evaluate the susceptibility to first-pass oxidative metabolism, the leading cause of metabolic degradation in vivo [17] the target compounds were incubated with rat liver microsomes. The turnover of the parent compound was assessed as the percentage of the parent compound recovered after 30 min of incubation with microsomes in the presence of an NADPH-regenerating system.
Test compounds were pre-incubated at 37 °C with rat liver microsomes (Tebu-Bio, Milan, Italy) (1.0 mg/mL microsomal protein) at 10 μM final concentration in 100 mM potassium phosphate buffer (pH 7.4) for 10 min. Metabolic reactions were initiated by the addition of the NADPH regenerating system (containing 10 mM NADP, 50 mM glucose-6-phosphate, and 10 unit/mL glucose-6-phosphate dehydrogenase, final glucose-6-phosphate dehydrogenase concentration, 1 unit/mL). After 30 min incubation, the reaction mixture was quenched by adding an equal volume of cold acetonitrile containing the internal standard. A test compound incubated with microsomes without NADPH regenerating system was included. Quenched samples were centrifuged at 4500 rpm for 15 min and the supernatants were injected for quantification analysis. Samples (100 μL) were analyzed by using an Agilent 1260 Infinity Binary LC System equipped with a diode array detector (Open Lab software was used to analyze the chromatographic data) and a Phenomenex Gemini C-18 column (250 mm × 4.6 mm, 5 μm particle size). The samples were eluted using CH3CN/20 mM ammonium formate pH 5.5 (7:3, v/v) as eluent (volumetric flow rate =1 mL/min). Concentrations were quantified by measuring the area under the peak.
The percentage of the parent compound remaining after a 30-min incubation was calculated according to the equation:% of parent compound remaining after 30 min = Cparent/Ccontrol × 100(1) where Cparent is ligand concentration after incubation with microsome fraction and NADPH regenerating system and Ccontrol is ligand concentration after incubation with microsome fraction only.
For orientation: Liver microsomes are a subcellular fraction often used to study metabolism.

In another data set the target is dopamine D2s receptor (Homo sapiens, UniProt P14416). Briefly: Dopamine D2s receptor competition binding ([3H]spiperone).
Data set [4] concerns the target T4, serotonin 5-HT7 receptor (5-HT7A) (Homo sapiens, UniProt P34969).
T4 construct: expressed in transfected cells
Briefly: 5-HT7 receptor radioligand competition binding ([3H]-SB269970). Conditions: human cloned 5-HT7A receptor, HEK293 membranes, 2 nM [3H]-SB269970; ± S.E.M., n = 3 in duplicate; read-out: Affinity Ki 5-HT7. How it is done: as §1, with “As” for “The final compounds were tested for their affinity at serotonin 5-HT1A, 5-HT2A, and 5-HT7 receptors and at dopamine D1, D2, D3, and D5 receptors. As”
The affinity of the compounds for serotonin 5-HT7 receptor was evaluated in membrane preparations from HEK293 cells stably expressing the human cloned 5-HT7A receptor, following previously described procedures with minor modifications. Competition binding experiments were performed using 2 nM [^3H]-SB269970 (34.5 Ci/mmol, 0.25 mCi/mL, Perkin Elmer NET1198U250UC) as radioligand. […] Methiothepine was included in the assays as reference compound. Assays were carried out in duplicate in 96-well assay plates, in assay buffer (50 mM Tris-HCl, 4 mM MgCl2, 1 mM ascorbic acid, 0.1 mM pargyline, pH = 7.4). Assay mixtures were incubated at 37 °C for 60 min, followed by filtration through GF/C glass filter plates, and washing with ice-cold assay buffer. Affinity (equilibrium dissociation constant, Ki) of the compounds was calculated from competition binding curves as indicated above.

Another data set has as its target T5, dopamine D1 receptor (Homo sapiens, UniProt P21728).
T5 construct: expressed in transfected cells
Briefly: Dopamine D1 receptor competition binding ([3H]-SCH23390). Conditions: HEK-293 membranes, [3H]-SCH23390 0.3 nM, mean (CI 95%), read-out: Affinity Ki D1. How it is done: as §1, §2, §3

Chain of dopamine D3 receptor (P35462 whole entry): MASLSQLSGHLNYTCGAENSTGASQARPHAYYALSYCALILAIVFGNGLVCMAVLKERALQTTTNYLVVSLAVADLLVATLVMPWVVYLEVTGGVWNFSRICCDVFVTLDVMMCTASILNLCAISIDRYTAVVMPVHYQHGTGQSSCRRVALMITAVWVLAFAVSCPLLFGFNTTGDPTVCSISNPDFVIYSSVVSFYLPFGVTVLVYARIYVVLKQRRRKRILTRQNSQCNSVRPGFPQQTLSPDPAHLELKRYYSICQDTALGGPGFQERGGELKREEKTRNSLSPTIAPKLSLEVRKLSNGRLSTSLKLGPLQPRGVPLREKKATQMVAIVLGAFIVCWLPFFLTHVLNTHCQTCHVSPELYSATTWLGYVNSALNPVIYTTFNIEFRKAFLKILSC
Chain of dopamine D2s receptor (P14416 1-414 isoform P14416-2): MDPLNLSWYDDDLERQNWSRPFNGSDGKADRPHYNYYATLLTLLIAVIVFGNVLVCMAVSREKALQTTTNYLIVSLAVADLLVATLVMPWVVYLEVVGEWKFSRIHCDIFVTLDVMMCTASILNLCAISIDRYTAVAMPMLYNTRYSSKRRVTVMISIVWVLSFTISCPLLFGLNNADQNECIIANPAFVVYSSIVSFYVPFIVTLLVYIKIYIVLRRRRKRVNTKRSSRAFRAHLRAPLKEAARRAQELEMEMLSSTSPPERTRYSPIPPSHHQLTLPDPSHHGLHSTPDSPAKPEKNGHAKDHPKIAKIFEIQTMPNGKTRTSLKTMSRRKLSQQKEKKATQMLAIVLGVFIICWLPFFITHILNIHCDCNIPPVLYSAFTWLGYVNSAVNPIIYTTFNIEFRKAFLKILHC
T2 sequence (P28223 whole entry): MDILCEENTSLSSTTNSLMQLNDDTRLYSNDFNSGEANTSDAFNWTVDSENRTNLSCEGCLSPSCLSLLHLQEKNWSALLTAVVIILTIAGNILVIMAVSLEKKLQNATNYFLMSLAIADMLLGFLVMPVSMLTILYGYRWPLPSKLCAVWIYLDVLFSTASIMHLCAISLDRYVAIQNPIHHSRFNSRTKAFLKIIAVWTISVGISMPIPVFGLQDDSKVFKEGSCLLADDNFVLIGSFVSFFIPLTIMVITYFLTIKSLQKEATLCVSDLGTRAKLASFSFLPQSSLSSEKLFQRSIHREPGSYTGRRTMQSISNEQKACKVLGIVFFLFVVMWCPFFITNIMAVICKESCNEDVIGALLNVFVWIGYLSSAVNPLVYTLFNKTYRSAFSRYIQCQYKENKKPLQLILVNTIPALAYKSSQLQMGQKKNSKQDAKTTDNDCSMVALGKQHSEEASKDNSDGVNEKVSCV
T4 sequence (P34969 1-445 isoform P34969-2): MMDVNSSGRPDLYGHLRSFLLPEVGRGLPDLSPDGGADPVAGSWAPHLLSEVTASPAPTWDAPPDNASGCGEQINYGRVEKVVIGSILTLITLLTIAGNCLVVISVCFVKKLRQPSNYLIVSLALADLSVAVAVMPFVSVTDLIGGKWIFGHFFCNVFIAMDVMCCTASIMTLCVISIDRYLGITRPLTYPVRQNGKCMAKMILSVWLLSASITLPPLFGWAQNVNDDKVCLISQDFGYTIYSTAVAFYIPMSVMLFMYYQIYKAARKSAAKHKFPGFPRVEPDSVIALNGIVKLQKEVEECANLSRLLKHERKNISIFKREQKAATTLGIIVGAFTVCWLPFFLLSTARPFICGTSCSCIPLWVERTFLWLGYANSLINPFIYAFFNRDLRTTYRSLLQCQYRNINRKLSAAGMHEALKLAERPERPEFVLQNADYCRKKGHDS
T1 sequence (P21918 whole entry): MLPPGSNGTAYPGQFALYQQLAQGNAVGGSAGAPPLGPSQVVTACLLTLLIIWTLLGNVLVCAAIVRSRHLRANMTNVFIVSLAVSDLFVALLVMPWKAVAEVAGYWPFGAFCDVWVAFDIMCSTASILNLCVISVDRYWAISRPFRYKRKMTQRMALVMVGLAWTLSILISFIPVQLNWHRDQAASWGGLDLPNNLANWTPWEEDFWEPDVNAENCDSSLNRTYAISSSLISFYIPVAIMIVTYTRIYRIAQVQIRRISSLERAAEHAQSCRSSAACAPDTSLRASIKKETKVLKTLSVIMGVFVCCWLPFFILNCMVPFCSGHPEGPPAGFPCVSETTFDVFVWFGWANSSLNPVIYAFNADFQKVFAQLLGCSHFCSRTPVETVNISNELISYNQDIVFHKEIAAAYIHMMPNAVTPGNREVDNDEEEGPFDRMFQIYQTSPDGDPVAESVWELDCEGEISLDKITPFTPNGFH
T5 sequence (P21728 whole entry): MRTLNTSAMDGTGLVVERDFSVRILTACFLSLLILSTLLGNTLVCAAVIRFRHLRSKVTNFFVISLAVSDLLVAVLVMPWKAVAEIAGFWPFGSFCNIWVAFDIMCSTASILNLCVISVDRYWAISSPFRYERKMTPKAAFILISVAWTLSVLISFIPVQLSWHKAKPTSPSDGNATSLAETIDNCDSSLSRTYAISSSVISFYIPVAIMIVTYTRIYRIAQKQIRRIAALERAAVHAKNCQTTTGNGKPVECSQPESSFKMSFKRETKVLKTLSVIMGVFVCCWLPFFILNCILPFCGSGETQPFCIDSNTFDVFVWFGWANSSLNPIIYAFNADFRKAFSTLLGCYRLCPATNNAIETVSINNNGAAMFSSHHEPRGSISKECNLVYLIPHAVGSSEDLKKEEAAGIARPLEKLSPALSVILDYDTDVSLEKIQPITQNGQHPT
Protocol for dopamine D2s receptor: (§4) Competition binding experiments at dopamine D2s and D3 receptor were performed to determine the affinity of the compounds. […] Membrane preparations of transfected CHO-K1 cells stably expressing the human D2s or D3 receptor were performed according to Bautista-Aguilera et al. [26]. The competition binding experiments were conducted as previously reported [26, 27]. Briefly, membrane fractions (D2sR: 25 µg/200 µL; D3R: 20 µg/200 µL) were incubated with [^3H]spiperone (0.2 nM) and test compound for 120 min at room temperature. […] Non-specific binding was determined in the presence of 10 µM haloperidol. Haloperidol was also used as reference compound. Separation of the bound ligand from the free ligand was conducted by filtration through GF/B filters using deionized water.
Protocol for dopamine D3 receptor: as §4

For `COc1ccc(-c2cc(F)ccc2N2CCN(CCCn3ncc(=O)n(C)c3=O)CC2)cc1` [Compound 9a, 2-(3-(4-(5-Fluoro-4’-methoxy-[1,1’-biphenyl]-2-yl)piperazin-1-yl)propyl)-4-methyl-1,2,4-triazine-3,5(2H,4H)-dione], the Ki at dopamine D5 receptor is 0.413 µM; on dopamine D3 receptor, more than 10 µM; in data set [1] it was 0.0491 ± 0.012 µM; in data set [2], 0.653 ± 0.095 µM; at dopamine D2s receptor, more than 10 µM; in data set [4], 0.0608 ± 0.0071 µM. Besides, the Ki at dopamine D1 receptor stood at 0.193 µM. Moreover, the remaining at 30 min, 10 μM in data set [3] is less than 3%.
